Assay results reported in patent US7888363B2, “Viral polymerase inhibitors” (Boehringer Ingelheim International GmbH, priority 2003, dated 2011).

Each compound was assayed against hepatitis C virus RNA dependant polymerase (NS5B) (Hepatitis C virus genotype 1b, UniProt P26663) (assay: Inhibition of NS5B RNA dependent RNA polymerase activity). Conditions: Table 1; HCV NS5B polymerase.
Chain of hepatitis C virus RNA dependant polymerase (NS5B) (P26663 2420-3010): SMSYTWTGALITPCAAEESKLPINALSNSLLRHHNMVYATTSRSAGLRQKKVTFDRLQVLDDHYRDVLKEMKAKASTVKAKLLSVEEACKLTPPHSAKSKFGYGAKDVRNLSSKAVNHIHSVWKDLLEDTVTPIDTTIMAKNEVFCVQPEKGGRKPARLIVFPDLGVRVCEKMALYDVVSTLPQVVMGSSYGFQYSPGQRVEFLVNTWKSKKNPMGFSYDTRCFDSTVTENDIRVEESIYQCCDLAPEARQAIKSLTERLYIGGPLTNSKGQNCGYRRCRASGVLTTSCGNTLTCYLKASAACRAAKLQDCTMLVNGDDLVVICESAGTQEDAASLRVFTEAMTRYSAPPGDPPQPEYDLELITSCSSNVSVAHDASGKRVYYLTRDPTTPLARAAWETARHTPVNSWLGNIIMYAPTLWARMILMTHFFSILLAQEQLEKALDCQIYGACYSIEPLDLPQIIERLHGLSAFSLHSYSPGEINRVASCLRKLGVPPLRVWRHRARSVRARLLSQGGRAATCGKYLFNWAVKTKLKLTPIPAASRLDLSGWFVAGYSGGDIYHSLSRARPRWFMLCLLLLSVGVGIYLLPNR
Type: biochemical
Experimental: A suitable assay is described in the examples.
Inhibition of NS5B RNA Dependent RNA Polymerase Activity
The compounds of the invention were tested for inhibitory activity against the hepatitis C virus RNA dependant polymerase (NS5B), according to protocol described in WO 03/010141
`O=C(O)c1ccc2c(C3CCCCC3)c(-c3ccoc3)n(CC(=O)N3CCC(N4CCCCC4)CC3)c2c1` [Example 1010] was tested, and the IC50 was < 0.2 µM.
With `CN(C)CC(=O)NNC(=O)Cn1c(-c2ccoc2)c(C2CCCCC2)c2ccc(C(=O)O)cc21` [Example 1132] the IC50 was < 0.2 µM.
`O=C(Cn1c(-c2ccoc2)c(C2CCCCC2)c2ccc(C(=O)O)cc21)NCC1CCCO1` (stereo not drawn) [Example 1113] was tested, and the IC50 was 0.2 to 1 µM.
`O=C(O)c1ccc2c(C3CCCCC3)c(-c3ccoc3)n(CC(=O)N3CCC[C@@H]3C(=O)O)c2c1` [Example 1123] was tested, and the IC50 was 0.2 to 1 µM.
`CC(C)(NC(=O)Cn1c(-c2ccoc2)c(C2CCCCC2)c2ccc(C(=O)O)cc21)C(=O)Nc1ccc(-c2ccc(C(=O)O)o2)cc1` [Example 1053] was tested, and the IC50 was < 0.2 µM.
`CN(C)C(=O)Cn1c(-c2ccoc2)c(C2CCCC2)c2ccc(C(=O)O)cc21` [Example 1044] was tested, and the IC50 was < 0.2 µM.
For `O=C(Cn1c(-c2ccoc2)c(C2CCCCC2)c2ccc(C(=O)O)cc21)N[C@@H](Cc1c[nH]c2ccc(O)cc12)C(=O)O` [Example 1081], the IC50 was < 0.2 µM.
With `CC(C)(C)Nc1nc(-c2c(C3CCCCC3)c3ccc(C(=O)O)cc3n2CC(=O)N2CCOCC2)cs1` [Example 1041] the IC50 was 0.2 to 1 µM.
`O=C(Cn1c(-c2ccoc2)c(C2CCCCC2)c2ccc(C(=O)O)cc21)Nc1cccc(C(=O)O)c1` [Example 1070] showed an IC50 of 0.2 to 1 µM.
In the case of `CCCN(CCC)C(=O)Cn1c(-c2ccoc2)c(C2CCCCC2)c2ccc(C(=O)O)cc21` [Example 1011], the IC50 is reported as 0.2 to 1 µM.
For `O=C(O)c1ccc2c(C3CCCC3)c(-c3ccccn3)n(CC(=O)N3CCCCC3)c2c1` [Example 1087], the IC50 was 0.2 to 1 µM.
With `CN(CC(=O)O)C(=O)Cn1c(-c2ccc(Br)cn2)c(C2CCCCC2)c2ccc(C(=O)O)cc21` [Example 1138] the IC50 was 0.2 to 1 µM.
Work on `CCN(C(=O)Cn1c(-c2ccoc2)c(C2CCCCC2)c2ccc(C(=O)O)cc21)C1CCCCC1` [Example 1093] yielded an IC50 of 0.2 to 1 µM.
For `CN(C)CCN(C)C(=O)Cn1c(-c2ccoc2)c(C2CCCCC2)c2ccc(C(=O)O)cc21` [Example 1112], the IC50 was < 0.2 µM.
With `CN1CCC(N(C)C(=O)Cn2c(-c3ccoc3)c(C3CCCCC3)c3ccc(C(=O)O)cc32)CC1` [Example 1104] the IC50 was < 0.2 µM.
Work on `NS(=O)(=O)c1ccc(CNC(=O)Cn2c(-c3ccoc3)c(C3CCCCC3)c3ccc(C(=O)O)cc32)cc1` [Example 1069] yielded an IC50 of 0.2 to 1 µM.
Work on `CS(=O)(=O)NC(=O)Cn1c(-c2ccoc2)c(C2CCCCC2)c2ccc(C(=O)O)cc21` [Example 1013] yielded an IC50 of 0.2 to 1 µM.
`O=C(O)c1ccc2c(C3CCCCC3)c(-c3cccs3)n(CC(=O)N3CCC(N4CCCC4)CC3)c2c1` [Example 1034] was tested, and the IC50 was < 0.2 µM.
Compound `CC(C)NC(=O)Cn1c(-c2cccs2)c(C2CCCCC2)c2ccc(C(=O)O)cc21` [Example 1036] has an IC50 of 0.2 to 1 µM.
For `O=C(O)c1ccc2c(C3CCCCC3)c(-c3ccoc3)n(CC(=O)N3CCC[C@H]3C(=O)O)c2c1` [Example 1066], the IC50 was < 0.2 µM.
For `CN(CCc1ccncc1)C(=O)Cn1c(-c2ccoc2)c(C2CCCCC2)c2ccc(C(=O)O)cc21` [Example 1004], the IC50 was < 0.2 µM.
For `CN(C(=O)Cn1c(-c2ccoc2)c(C2CCCCC2)c2ccc(C(=O)O)cc21)C1CCCCC1` [Example 1092], the IC50 was < 0.2 µM.

Same assay, conditions: Table 2; HCV NS5B polymerase
`CC(C)c1cc(C(C)C)c(S(=O)(=O)NC(=O)c2ccc3c(C4CCCCC4)c(-c4ccoc4)n(CC(=O)N4CCOCC4)c3c2)c(C(C)C)c1` [Example 2043] was tested, and the IC50 was 0.2 to 1 µM.
With `O=C(NS(=O)(=O)c1ccc(F)cc1)c1ccc2c(C3CCCCC3)c(-c3ccoc3)n(CC(=O)N3CCOCC3)c2c1` [Example 2015] the IC50 was < 0.2 µM.
For `Cc1nn(C)c(Cl)c1S(=O)(=O)NC(=O)c1ccc2c(C3CCCCC3)c(-c3ccoc3)n(CC(=O)N3CCOCC3)c2c1` [Example 2033], the IC50 was < 0.2 µM.

Same assay, conditions: Table 3; HCV NS5B polymerase
For `CC(C)(NC(=O)Cn1c(-c2ccoc2)c(C2CCCCC2)c2ccc(C(=O)NC(C)(C)C(=O)Nc3ccc(/C=C/C(=O)O)cc3)cc21)C(=O)Nc1ccc(/C=C/C(=O)O)cc1` [Example 3005], the IC50 was < 0.2 µM.
In the case of `O=C(O)/C=C/c1ccc(NC(=O)C2(NC(=O)c3ccc4c(C5CCCC5)c(-c5ccccn5)n(CC(=O)N5CCCC5)c4c3)CCC2)cc1` [Example 3010], the IC50 is reported as < 0.2 µM.

Same assay, conditions: Table 4; class ranges
For `CN1CCN(C(=O)Cn2c(-c3ccoc3)c(C3CCCCC3)c3ccc(C(=O)NCC(O)c4ccccc4)cc32)CC1` (stereo not drawn) [Example 4023], the IC50 was 0.2 to 1 µM.
With `CCc1nc(C2(NC(=O)c3ccc4c(C5CCCCC5)c(-c5ccoc5)n(CC(=O)N5CCC(N6CCCC6)CC5)c4c3)CCC2)cs1` [Example 4107] the IC50 was < 0.2 µM.
Compound `CN1CCN(C(=O)Cn2c(-c3ccoc3)c(C3CCCCC3)c3ccc(C(=O)NCc4cccnc4)cc32)CC1` [Example 4017] has an IC50 of 0.2 to 1 µM.
With `COc1ccc([C@@H](C)NC(=O)c2ccc3c(C4CCCCC4)c(-c4ccoc4)n(CC(=O)N4CCN(C)CC4)c3c2)cc1` [Example 4043] the IC50 was < 0.2 µM.
`COc1ccc(CNC(=O)c2ccc3c(C4CCCCC4)c(-c4ccoc4)n(CC(=O)N4CCC(N5CCCC5)CC4)c3c2)cc1OC` [Example 4004] was tested, and the IC50 was < 0.2 µM.
Compound `CN1CCN(C(=O)Cn2c(-c3ccoc3)c(C3CCCCC3)c3ccc(C(=O)NCc4ccco4)cc32)CC1` [Example 4011] has an IC50 of 0.2 to 1 µM.
`CN1CCN(C(=O)Cn2c(-c3ccoc3)c(C3CCCCC3)c3ccc(C(=O)NCCc4ccccc4)cc32)CC1` [Example 4026] was tested, and the IC50 was 1 to 10 µM.
For `O=C(NCc1ccc(O)c(O)c1)c1ccc2c(C3CCCCC3)c(-c3ccoc3)n(CC(=O)N3CCOCC3)c2c1` [Example 4062], the IC50 was < 0.2 µM.
In the case of `O=C(NS(=O)(=O)c1ccccc1)c1ccc2c(C3CCCCC3)c(-c3ccoc3)n(CC(=O)N3CCC(N4CCCC4)CC3)c2c1` [Example 4110], the IC50 is reported as < 0.2 µM.
`COc1ccc([C@@H](C)NC(=O)c2ccc3c(C4CCCCC4)c(-c4ccoc4)n(CC(=O)N4CCOCC4)c3c2)cc1OC` [Example 4063] showed an IC50 of 0.2 to 1 µM.
For `COc1cccc([C@@H](C)NC(=O)c2ccc3c(C4CCCCC4)c(-c4ccoc4)n(CC(=O)N4CCN(C)CC4)c3c2)c1` [Example 4042], the IC50 was < 0.2 µM.
`COC(=O)C(C)(C)NC(=O)c1ccc2c(C3CCCCC3)c(-c3ccoc3)n(CC(=O)N3CCOCC3)c2c1` [Example 4075] showed an IC50 of 0.2 to 1 µM.
`CC(C)(NC(=O)c1ccc2c(C3CCCCC3)c(-c3ccoc3)n(CC(=O)N3CCOCC3)c2c1)C(=O)O` [Example 4087] was tested, and the IC50 was < 0.2 µM.
`COCC(C)NC(=O)c1ccc2c(C3CCCCC3)c(-c3ccoc3)n(CC(=O)N3CCN(C)CC3)c2c1` (stereo not drawn) [Example 4020] was tested, and the IC50 was 0.2 to 1 µM.
`CN1CCN(C(=O)Cn2c(-c3ccccn3)c(C3CCCCC3)c3ccc(C(N)=O)cc32)CC1` [Example 4001] was tested, and the IC50 was 1 to 10 µM.
With `CN1CCN(C(=O)Cn2c(-c3ccoc3)c(C3CCCCC3)c3ccc(C(=O)NC4CCN(Cc5ccccc5)C4)cc32)CC1` (stereo not drawn) [Example 4036] the IC50 was 0.2 to 1 µM.

Same assay, conditions: Table 7; class ranges
In the case of `CC(=O)NCCNC(=O)c1ccc2c(c1)c(C1CCCCC1)c(-c1ccoc1)n2CC(=O)N1CCC(N2CCCC2)CC1` [Example 7031], the IC50 is reported as 1 to 10 µM.
Compound `O=C(NCc1ccccc1)c1ccc2c(c1)c(C1CCCCC1)c(-c1ccoc1)n2CC(=O)N1CCC(N2CCCC2)CC1` [Example 7027] has an IC50 of 1 to 10 µM.
For `O=C(Nc1ccc(N2CCOCC2)cc1)c1ccc2c(c1)c(C1CCCCC1)c(-c1ccoc1)n2CC(=O)N1CCC(N2CCCC2)CC1` [Example 7018], the IC50 was 1 to 10 µM.
Compound `CC(CNC(=O)c1ccc2c(c1)c(C1CCCCC1)c(-c1ccoc1)n2CC(=O)N1CCC(N2CCCC2)CC1)c1ccccc1` (stereo not drawn) [Example 7030] has an IC50 of 1 to 10 µM.
Work on `O=C(O)CC(NC(=O)c1ccc2c(c1)c(C1CCCCC1)c(-c1ccoc1)n2CC(=O)N1CCC(N2CCCC2)CC1)C(F)(F)F` (stereo not drawn) [Example 7051] yielded an IC50 of 1 to 10 µM.
